{
  "source": "patent US9493466B2",
  "about": "“Treatment of cancer with TOR kinase inhibitors” (Signal Pharmaceuticals, LLC, priority 2011, dated 2016)",
  "key": {"[1]": {"tested_on": "NCI-H929 tumor", "experiment": "Human plasma cell myeloma (NCI-H929) study", "assay_type": "in vivo, SCID mice", "settings": "FIG. 19", "text": "Human Plasma Cell Myeloma (NCI-H929) Study. Female SCID mice (Fox Chase SCID®, CB17/Icr-Prkce^scid, Charles River) were 8 weeks old at the beginning of the study. The animals were fed ad libitum water (reverse osmosis, 1 ppm Cl) and NIH 31 Modified and Irradiated Lab Diet® consisting of 18.0% crude protein, 5.0% crude fat, and 5.0% crude fiber. […]\nThe NCI-H929 tumor cells used for implantation were harvested during log phase growth and resuspended at a concentration of 5×10^7 cells/mL in 50% Matrigel (BD Biosciences). […] Tumor size, in mm^3, was calculated from: […]\nCompound 1 was administered via oral gavage (p.o.) once daily for twenty-eight days (qd×28). Treatment efficacy was determined from the calculated tumor volumes on Day 12. MTV(n), the median tumor volume for the number of animals, n, evaluable on the day of analysis, was determined for each group. Percent tumor growth inhibition (% TGI) was defined as the difference between the MTV of the control group and the MTV of the drug-treated group, expressed as a percentage of the MTV of the control group: […]\nEach animal was to be euthanized when its neoplasm reached the endpoint volume (2000 mm^3). For each animal whose tumor reached the endpoint volume, the time to endpoint (TTE) was calculated by the following equation: […]"}, "[2]": {"tested_on": "TORC1 (pS6, p4EBP1) and TORC2 (pAkt) pathways", "experiment": "TOR pathway biomarker measurements in whole blood", "assay_type": "in vivo, human", "text": "Parameters to be explored include mTOR biomarker inhibition in blood and tumor, histopathologic response, correlations with pharmacogenomic findings and percentage of inhibition of pAKT (Ser473), phospho-S6RP (Ser235/236 and/or Ser240/244), phospho-4EB-P1 (Thr37/46), and/or other relevant biomarkers in peripheral blood samples and tumor, adverse events and clinical outcome. The pharmacodynamic (PD) measurements are incorporated in this study to evaluate target inhibition of mTORC1 and mTORC2 pathways, the consequences of such inhibition, and PK/PD relationships. In Parts A and B, biomarker analysis will involve measuring pAKT (mTORC2) in protein lysates derived from isolated platelets. Levels of p4EB-P1 and pS6RP (mTORC1), and pAKT (mTORC2), will be measured by flow cytometry using whole blood samples. Likewise, in Parts A and B, pAKT, p4EB-P1, p56, Ki67 and/or other relevant markers to assess Compound 1 activity will be measured in serial tumor biopsies from subjects with accessible disease when possible. The changes of each biomarker will be determined by comparing the levels of biomarkers in pre- and post-treatment samples and, where possible, correlate these with drug exposure in blood, and tissue if available, and tumor response over time. Full details of all statistical analyses and modeling for these outcomes will be described in the statistical analysis plan and final study report.\nTOR Pathway Biomarker Measurements in Whole Blood. Blood samples received from clinical sites were aliquoted into a 96-deepwell plate and rested for 1 hour at 37° C. The samples were stimulated with anti-IgD and LPS for 15 minutes at 37° C. The red blood cells were lysed and the white blood cells were fixed with BD Lyse/Fix Buffer at a ratio of 15:1 buffer to blood for 10 minutes at 37° C. The plates were centrifuged, aspirated, and 1 mL of ice-cold methanol was added to the wells containing fixed white blood cells to permeabilize the cells for intracellular staining. The plates were stored overnight at −80° C. The plates were thawed, centrifuged, aspirated and washed twice with PBS+0.5% BSA. The cells were stained with antibodies specific for the surface markers CD3, CD14, and CD19, and for mTOR pathway markers, including pS6 (S235/236), p4EBP1 (T37/46), and pAKT (S473). The cells were washed twice with PBS and fixed with 1.6% PFA.\nSample analysis: The samples were analyzed on an 8 color cytometer. Control wells of 8-peak rainbow beads (Spherotech Libertyville, Ill.) were acquired at multiple points during sample acquisition. The median fluorescence intensity (MFI) was computed for each marker from the fluorescence intensity levels in T cells, B cells, and monocytes. The MFI were normalized using the 8-peak rainbow beads and presented as ERF (Equivalent number of Reference Fluorophores). ERFs were calculated from the MFIs using a linear regression transformation carried out on a log-log scale using the rainbow calibration particles with 8 intensities on 8 colors. The percent change from baseline for pS6, p4EBP1, and pAKT in stimulated and non-stimulated T cells, B cells, and monocytes was determined for each patient. The baseline value was an average of two visits (screening and cycle 1/day −1 at 0 hr pre-dose) when available."}},
  "data": [
    {"smiles": "CO[C@H]1CC[C@H](N2C(=O)CNc3ncc(-c4ccc(C(C)(C)O)nc4)nc32)CC1", "note": "[Compound 1, 7-(6-(2-hydroxypropan-2-yl)pyridin-3-yl)-1-((1r,4r)-4-methoxycyclohexyl)-3,4-dihydropyrazino-[2,3-b]pyrazin-2(1H)-one]", "values": [
      {"measurement": "tumor growth delay", "setting": "[1]; 3 mg/kg and 10 mg/kg p.o. qd×28", "value": "Significant tumor growth delay"},
      {"measurement": "tumor growth inhibition", "setting": "[1]; 10 mg/kg p.o. qd×28", "value": "Significant tumor growth inhibition"},
      {"measurement": "inhibition of TORC1 and TORC2 biomarkers", "setting": "[2]; Part A, doses of 30 mg and higher, up to 5 hours post first dose, stimulated blood", "value": "Consistent inhibition"},
      {"measurement": "TORC1 and TORC2 inhibition", "setting": "[2]; Part B, DLBCL patients", "value": "observed in the first patient analyzed"},
      {"measurement": "TORC1 and TORC2 inhibition", "setting": "[2]; Part B, GBM patients", "value": "observed in majority of patients"},
      {"measurement": "TORC1 and TORC2 inhibition", "setting": "[2]; Part B, HCC patients", "value": "observed in majority of patients"},
      {"measurement": "TORC1 and TORC2 inhibition", "setting": "[2]; Part B, MM patients", "value": "observed in 2 patients"},
      {"measurement": "TORC1 and TORC2 inhibition", "setting": "[2]; Part B, NSCLC patients", "value": "observed in majority of patients"},
      {"measurement": "TORC1 and TORC2 inhibition (pAkt, p4EPB1)", "setting": "[2]; Part B, all cohorts, blood, 1.5 h after dosing, Cycle 1 Day 1 and Day 15, P <0.001", "value": "inhibition was observed"}
    ]}
  ]
}
